Data reported in ChEMBL document CHEMBL1157715, “Probes for narcotic receptor mediated phenomena. 40. N-substituted cis-4a-ethyl-1,2,3,4,4a,9a-hexahydrobenzofuro[2,3-c]pyridin-8-ols” (Bioorg Med Chem, 2010).

Legend:
Format in all cases: cell-based
Mu-type opioid receptor = Mu-type opioid receptor (Homo sapiens, UniProt P35372); experiment: Displacement of [3H]DAMGO from mu opioid receptor expressed in CHO cells
[1] = target: Kappa-type opioid receptor (Homo sapiens, UniProt P41145); experiment: Displacement of [3H]U69593 from kappa opioid receptor expressed in CHO cells
Chain of Kappa-type opioid receptor (P41145 whole entry): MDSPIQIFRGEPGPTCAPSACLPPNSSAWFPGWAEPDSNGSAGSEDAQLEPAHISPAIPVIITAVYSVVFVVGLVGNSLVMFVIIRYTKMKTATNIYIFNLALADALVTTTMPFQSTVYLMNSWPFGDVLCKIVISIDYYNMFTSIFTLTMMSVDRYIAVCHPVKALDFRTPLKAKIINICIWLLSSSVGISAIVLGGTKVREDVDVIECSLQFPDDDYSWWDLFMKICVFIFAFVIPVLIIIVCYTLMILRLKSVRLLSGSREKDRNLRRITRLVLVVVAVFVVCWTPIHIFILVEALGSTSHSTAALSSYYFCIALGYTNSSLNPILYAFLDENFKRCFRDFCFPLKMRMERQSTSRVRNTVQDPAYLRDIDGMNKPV

[2] = target: Delta-type opioid receptor (Homo sapiens, UniProt P41143); experiment: Displacement of [3H]DADLE from delta opioid receptor expressed in CHO cells
Chain of Delta-type opioid receptor (P41143 whole entry): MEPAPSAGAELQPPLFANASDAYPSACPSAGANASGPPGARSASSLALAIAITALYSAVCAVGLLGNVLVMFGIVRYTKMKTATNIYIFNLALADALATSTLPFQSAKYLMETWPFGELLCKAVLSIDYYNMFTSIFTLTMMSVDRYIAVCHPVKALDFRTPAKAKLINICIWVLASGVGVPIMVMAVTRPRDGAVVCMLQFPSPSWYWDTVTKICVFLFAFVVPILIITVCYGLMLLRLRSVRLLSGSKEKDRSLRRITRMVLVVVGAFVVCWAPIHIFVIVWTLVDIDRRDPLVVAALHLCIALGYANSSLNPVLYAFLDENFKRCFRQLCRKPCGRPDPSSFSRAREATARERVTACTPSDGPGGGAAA

Chain of Mu-type opioid receptor (P35372 whole entry): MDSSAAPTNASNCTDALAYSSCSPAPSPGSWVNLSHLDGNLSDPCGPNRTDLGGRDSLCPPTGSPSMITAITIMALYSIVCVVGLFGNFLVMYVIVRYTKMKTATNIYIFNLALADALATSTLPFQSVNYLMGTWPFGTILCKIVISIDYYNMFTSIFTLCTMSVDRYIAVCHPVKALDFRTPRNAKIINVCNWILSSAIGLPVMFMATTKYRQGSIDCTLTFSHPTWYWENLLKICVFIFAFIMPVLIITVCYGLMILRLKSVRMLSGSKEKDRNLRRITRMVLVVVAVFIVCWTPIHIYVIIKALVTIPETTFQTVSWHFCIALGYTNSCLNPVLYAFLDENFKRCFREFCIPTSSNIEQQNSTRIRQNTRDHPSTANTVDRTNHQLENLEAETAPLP

SMILES	Ki (Mu-type opioid receptor)	Ki [1]	Ki [2]
Oc1ccc2c(c1)C1CCN(CC3CC3)CC1O2 (stereo unspecified)	4 nM	–	–
Oc1ccc2c(c1)C1CCN(CCc3ccccc3)CC1O2 (stereo unspecified)	0.9 nM	–	–
CC[C@@]12CCN(CCc3ccccc3)C[C@@H]1Oc1ccc(O)cc12	0.7 nM	88 nM	75 nM
CC[C@@]12CCN(CC3CC3)C[C@@H]1Oc1c(O)cccc12 (racemic)	4670 nM	10000 nM	6150 nM
CC[C@@]12CCN(CCc3ccc([N+](=O)[O-])cc3)C[C@@H]1Oc1c(O)cccc12 (racemic)	670 nM	720 nM	2260 nM
CC[C@@]12CCN(Cc3ccc(F)cc3)C[C@@H]1Oc1c(O)cccc12 (racemic)	> 2700 nM	3380 nM	> 4500 nM
CC[C@@]12CCN(CCc3ccc(F)cc3)C[C@@H]1Oc1c(O)cccc12 (racemic)	354 nM	935 nM	> 4500 nM
CN1CC[C@@]2(CCc3ccccc3)c3cccc(O)c3O[C@H]2C1 (racemic)	740 nM	2880 nM	> 4300 nM
CC[C@@]12CCN(C)C[C@@H]1Oc1c(O)cccc12 (racemic)	795 nM	> 10000 nM	7480 nM
CC[C@@]12CCN(CCc3ccccc3)C[C@@H]1Oc1c(O)cccc12 (racemic)	1630 nM	2220 nM	7210 nM
